From the NIST ThermoML archive (doi:10.1016/j.jct.2008.10.016)
Numbers after ± are expanded uncertainties.

What was measured:
[1] = Drop volume
[2] = xn = mol fraction of the nth substance listed; details: Drop volume

Work on `CCCCCCl` [1-chloropentane] yielded a surface tension liquid-gas ([1]; 283.15 K) of 26.02 ± 0.32 mN/m, a surface tension liquid-gas ([1]; 288.15 K) of 25.58 ± 0.32 mN/m and a surface tension liquid-gas ([1]; 293.15 K) of 25.02 ± 0.31 mN/m. It also gave a surface tension liquid-gas ([1]; 298.15 K) of 24.46 ± 0.3 mN/m, a surface tension liquid-gas ([1]; 303.15 K) of 24.02 ± 0.3 mN/m and a surface tension liquid-gas ([1]; 308.15 K) of 23.51 ± 0.29 mN/m. For the same molecule, the surface tension liquid-gas ([1]; 313.15 K) was 23.02 ± 0.29 mN/m.
`CCCCCCl` [1-chloropentane] + CCCCCC gave a surface tension liquid-gas ([2]; 283.15 K, x2 = 0.0482) of 25.44 ± 0.31 mN/m, a surface tension liquid-gas ([2]; 283.15 K, x2 = 0.1185) of 24.7 ± 0.31 mN/m and a surface tension liquid-gas ([2]; 283.15 K, x2 = 0.1991) of 24 ± 0.3 mN/m. It also gave a surface tension liquid-gas ([2]; 283.15 K, x2 = 0.308) of 23.2 ± 0.29 mN/m, a surface tension liquid-gas ([2]; 283.15 K, x2 = 0.3925) of 22.62 ± 0.28 mN/m and a surface tension liquid-gas ([2]; 283.15 K, x2 = 0.5087) of 21.91 ± 0.28 mN/m. It also gave a surface tension liquid-gas ([2]; 283.15 K, x2 = 0.5953) of 21.41 ± 0.27 mN/m, a surface tension liquid-gas ([2]; 283.15 K, x2 = 0.7076) of 20.85 ± 0.26 mN/m and a surface tension liquid-gas ([2]; 283.15 K, x2 = 0.7889) of 20.47 ± 0.26 mN/m. The surface tension liquid-gas ([2]; 283.15 K, x2 = 0.9069) was 19.97 ± 0.25 mN/m, the surface tension liquid-gas ([2]; 283.15 K, x2 = 0.9474) was 19.81 ± 0.25 mN/m and the surface tension liquid-gas ([2]; 288.15 K, x2 = 0.0482) was 25.02 ± 0.31 mN/m. The surface tension liquid-gas ([2]; 288.15 K, x2 = 0.1185) was 24.3 ± 0.3 mN/m, the surface tension liquid-gas ([2]; 288.15 K, x2 = 0.1991) was 23.59 ± 0.29 mN/m and the surface tension liquid-gas ([2]; 288.15 K, x2 = 0.308) was 22.76 ± 0.28 mN/m. For the same molecule, the surface tension liquid-gas ([2]; 288.15 K, x2 = 0.3925) was 22.17 ± 0.28 mN/m, the surface tension liquid-gas ([2]; 288.15 K, x2 = 0.5087) was 21.44 ± 0.27 mN/m and the surface tension liquid-gas ([2]; 288.15 K, x2 = 0.5953) was 20.94 ± 0.26 mN/m. For the same molecule, the surface tension liquid-gas ([2]; 288.15 K, x2 = 0.7076) was 20.37 ± 0.26 mN/m, the surface tension liquid-gas ([2]; 288.15 K, x2 = 0.7889) was 19.98 ± 0.25 mN/m and the surface tension liquid-gas ([2]; 288.15 K, x2 = 0.9069) was 19.44 ± 0.25 mN/m. It also gave a surface tension liquid-gas ([2]; 288.15 K, x2 = 0.9474) of 19.24 ± 0.25 mN/m, a surface tension liquid-gas ([2]; 293.15 K, x2 = 0.0482) of 24.53 ± 0.3 mN/m and a surface tension liquid-gas ([2]; 293.15 K, x2 = 0.1185) of 23.83 ± 0.3 mN/m. For the same molecule, the surface tension liquid-gas ([2]; 293.15 K, x2 = 0.1991) was 23.09 ± 0.29 mN/m, the surface tension liquid-gas ([2]; 293.15 K, x2 = 0.308) was 22.25 ± 0.28 mN/m and the surface tension liquid-gas ([2]; 293.15 K, x2 = 0.3925) was 21.67 ± 0.27 mN/m. It also gave a surface tension liquid-gas ([2]; 293.15 K, x2 = 0.5087) of 20.94 ± 0.26 mN/m, a surface tension liquid-gas ([2]; 293.15 K, x2 = 0.5953) of 20.47 ± 0.26 mN/m and a surface tension liquid-gas ([2]; 293.15 K, x2 = 0.7076) of 19.9 ± 0.25 mN/m. For the same molecule, the surface tension liquid-gas ([2]; 293.15 K, x2 = 0.7889) was 19.5 ± 0.25 mN/m, the surface tension liquid-gas ([2]; 293.15 K, x2 = 0.9069) was 18.94 ± 0.24 mN/m and the surface tension liquid-gas ([2]; 293.15 K, x2 = 0.9474) was 18.74 ± 0.24 mN/m. It also gave a surface tension liquid-gas ([2]; 298.15 K, x2 = 0.0482) of 24.02 ± 0.3 mN/m, a surface tension liquid-gas ([2]; 298.15 K, x2 = 0.1185) of 23.35 ± 0.29 mN/m and a surface tension liquid-gas ([2]; 298.15 K, x2 = 0.1991) of 22.64 ± 0.28 mN/m. The surface tension liquid-gas ([2]; 298.15 K, x2 = 0.308) was 21.78 ± 0.27 mN/m, the surface tension liquid-gas ([2]; 298.15 K, x2 = 0.3925) was 21.2 ± 0.27 mN/m and the surface tension liquid-gas ([2]; 298.15 K, x2 = 0.5087) was 20.47 ± 0.26 mN/m. It also gave a surface tension liquid-gas ([2]; 298.15 K, x2 = 0.5953) of 20.02 ± 0.25 mN/m, a surface tension liquid-gas ([2]; 298.15 K, x2 = 0.7076) of 19.45 ± 0.25 mN/m and a surface tension liquid-gas ([2]; 298.15 K, x2 = 0.7889) of 19.04 ± 0.24 mN/m. It also gave a surface tension liquid-gas ([2]; 298.15 K, x2 = 0.9069) of 18.5 ± 0.24 mN/m, a surface tension liquid-gas ([2]; 298.15 K, x2 = 0.9474) of 18.29 ± 0.24 mN/m and a surface tension liquid-gas ([2]; 303.15 K, x2 = 0.0482) of 23.59 ± 0.29 mN/m. It also gave a surface tension liquid-gas ([2]; 303.15 K, x2 = 0.1185) of 22.95 ± 0.29 mN/m, a surface tension liquid-gas ([2]; 303.15 K, x2 = 0.1991) of 22.24 ± 0.28 mN/m and a surface tension liquid-gas ([2]; 303.15 K, x2 = 0.308) of 21.37 ± 0.27 mN/m. For the same molecule, the surface tension liquid-gas ([2]; 303.15 K, x2 = 0.3925) was 20.75 ± 0.26 mN/m, the surface tension liquid-gas ([2]; 303.15 K, x2 = 0.5087) was 20.03 ± 0.25 mN/m and the surface tension liquid-gas ([2]; 303.15 K, x2 = 0.5953) was 19.56 ± 0.25 mN/m. The surface tension liquid-gas ([2]; 303.15 K, x2 = 0.7076) was 18.98 ± 0.24 mN/m, the surface tension liquid-gas ([2]; 303.15 K, x2 = 0.7889) was 18.56 ± 0.24 mN/m and the surface tension liquid-gas ([2]; 303.15 K, x2 = 0.9069) was 17.99 ± 0.23 mN/m. For the same molecule, the surface tension liquid-gas ([2]; 303.15 K, x2 = 0.9474) was 17.79 ± 0.23 mN/m, the surface tension liquid-gas ([2]; 308.15 K, x2 = 0.0482) was 23.11 ± 0.29 mN/m and the surface tension liquid-gas ([2]; 308.15 K, x2 = 0.1185) was 22.45 ± 0.28 mN/m. The surface tension liquid-gas ([2]; 308.15 K, x2 = 0.1991) was 21.71 ± 0.27 mN/m, the surface tension liquid-gas ([2]; 308.15 K, x2 = 0.308) was 20.8 ± 0.26 mN/m and the surface tension liquid-gas ([2]; 308.15 K, x2 = 0.3925) was 20.16 ± 0.26 mN/m. For the same molecule, the surface tension liquid-gas ([2]; 308.15 K, x2 = 0.5087) was 19.4 ± 0.25 mN/m, the surface tension liquid-gas ([2]; 308.15 K, x2 = 0.5953) was 18.91 ± 0.24 mN/m and the surface tension liquid-gas ([2]; 308.15 K, x2 = 0.7076) was 18.3 ± 0.24 mN/m. For the same molecule, the surface tension liquid-gas ([2]; 308.15 K, x2 = 0.7889) was 17.88 ± 0.23 mN/m, the surface tension liquid-gas ([2]; 308.15 K, x2 = 0.9069) was 17.25 ± 0.22 mN/m and the surface tension liquid-gas ([2]; 308.15 K, x2 = 0.9474) was 17.05 ± 0.22 mN/m. It also gave a surface tension liquid-gas ([2]; 313.15 K, x2 = 0.0482) of 22.64 ± 0.28 mN/m, a surface tension liquid-gas ([2]; 313.15 K, x2 = 0.1185) of 22.02 ± 0.28 mN/m and a surface tension liquid-gas ([2]; 313.15 K, x2 = 0.1991) of 21.3 ± 0.27 mN/m. For the same molecule, the surface tension liquid-gas ([2]; 313.15 K, x2 = 0.308) was 20.41 ± 0.26 mN/m, the surface tension liquid-gas ([2]; 313.15 K, x2 = 0.3925) was 19.8 ± 0.25 mN/m and the surface tension liquid-gas ([2]; 313.15 K, x2 = 0.5087) was 19.05 ± 0.24 mN/m. The surface tension liquid-gas ([2]; 313.15 K, x2 = 0.5953) was 18.56 ± 0.24 mN/m, the surface tension liquid-gas ([2]; 313.15 K, x2 = 0.7076) was 18 ± 0.23 mN/m and the surface tension liquid-gas ([2]; 313.15 K, x2 = 0.7889) was 17.58 ± 0.23 mN/m. The surface tension liquid-gas ([2]; 313.15 K, x2 = 0.9069) was 16.99 ± 0.22 mN/m and the surface tension liquid-gas ([2]; 313.15 K, x2 = 0.9474) was 16.77 ± 0.22 mN/m.
In the case of `CCCCCC` [hexane], the surface tension liquid-gas ([1]; 283.15 K) is reported as 19.63 ± 0.25 mN/m, the surface tension liquid-gas ([1]; 288.15 K) is reported as 19.04 ± 0.24 mN/m and the surface tension liquid-gas ([1]; 293.15 K) is reported as 18.52 ± 0.24 mN/m. The surface tension liquid-gas ([1]; 298.15 K) was 18.06 ± 0.23 mN/m, the surface tension liquid-gas ([1]; 303.15 K) was 17.53 ± 0.23 mN/m and the surface tension liquid-gas ([1]; 308.15 K) was 16.74 ± 0.22 mN/m. It also gave a surface tension liquid-gas ([1]; 313.15 K) of 16.47 ± 0.22 mN/m.
